Source: patent US8383637B2, “2-amino-quinazoline derivatives useful as inhibitors of β-secretase (BACE)” (Jansssen Pharmaceutica N.V., priority 2004, dated 2013)
Several values for one entry are separate records, joined by “and”; a condition that tells them apart may be missing. Equal entries are not always repeated. Where two headings read alike, the source gives them in different places.

Experiments:
Type in all cases: biochemical
β-secretase(BACE) [1] = target: T1, β-secretase(BACE) (Homo sapiens, UniProt P56817); assay: BACE Assay-1 (MCA-substrate, IC50); settings: procedure of Example 158; read-out: IC50 μM (158)
T1 construct: purchased Panvera
Procedure: The following standards are reagents were used in this assay: Sodium Citrate trisodium salt dihydrate (Sigma), Citric Acid monohydrate (Merck), PEG8000 (Sigma), MCA-substrate (Bachem), β-secretase (BACE) (Panvera), 96-well plate zwart (Costar (Elscolab)), StatVal (Bachem).
The following standard assay buffer solution was prepared and used in this assay: 0.05 M, pH 5.0 mixture of sodium citrate trisodium salt dihydrate (9.56 g), citric acid monohydrate (3.68 g) and PEG8000 (0.50 g).
The MCA-substrate stock solution was prepared by mixing 10 mg MCA-substrate with 5 mL DMSO for a final solution concentration of 2.0 mg/mL. The substrate work solution was prepared by mixing 0.1 mL substrate in 1.90 mL assay buffer for a final concentration of 0.05 mM. The β-secretase (BACE) work solution was prepared by mixing 8 μL BACE in 2 mL assay buffer for a final concentration of 10 μg/mL.
The screen procedure for this assay was as follows. 60 μL of assay buffer was pippeted into each well of a 96-well plate. To each well was then pipetted 1 μL of test compound at the selected concentration. To each well was then added 20 μL of the β-secretase work solution and 20 μL of the MCA-substrate stock solution.
The procedure for the blank was as follows. 80 μL of assay buffer was pipetted into each well to be used as a blank control. To each well was then added 1 μL of DMSO and 20 μL of MCA-substrate solution in each well.
The procedure for the positive control was as follows. 60 μL of assay buffer was pipetted into each well to be used as a positive control. To each well was then added 1 μL of DMSO, 20 μL of BACE work solution and 20 μL of MCA-substrate stock solution.
For test compounds, measured at multiple concentrations, the measured T0 and T60 values were used to calculate an IC50 value using Graphpad Software (or PIR).

β-secretase(BACE) [2] = target: T1, β-secretase(BACE); assay: BACE Assay-2 (FS1 substrate, IC50 and Ki); settings: procedure of Example 159, FS1 substrate; read-out: Ki μM (159)
β-secretase(BACE) [3] = target: T1, β-secretase(BACE); assay: BACE FS1% Inhibition Assay; settings: FS1 substrate
Summary of the method: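 Percent inhibition at each tested concentration, referenced to enzyme-free blank and vehicle-only positive control. Reaction: compound and BACE (4 μg/mL working stock) mixed 20 min at room temperature before FS1 substrate (300 μg/mL working stock), then 1 h at room temperature.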

[4] = 0.3 μM test compound, read-out: % Inhibition (FS) 0.3 μM
[5] = 1 μM test compound, read-out: % Inhibition (FS) 1 μM
[6] = 3 μM test compound, read-out: % Inhibition (FS) 3 μM
[7] = 0.3 μM test compound, read-out: % Inhibition (FS)
[8] = 1 μM test compound, read-out: % Inhibition (FS)
[9] = 3 μM test compound, read-out: % Inhibition (FS)

T1 sequence (P56817 46-501): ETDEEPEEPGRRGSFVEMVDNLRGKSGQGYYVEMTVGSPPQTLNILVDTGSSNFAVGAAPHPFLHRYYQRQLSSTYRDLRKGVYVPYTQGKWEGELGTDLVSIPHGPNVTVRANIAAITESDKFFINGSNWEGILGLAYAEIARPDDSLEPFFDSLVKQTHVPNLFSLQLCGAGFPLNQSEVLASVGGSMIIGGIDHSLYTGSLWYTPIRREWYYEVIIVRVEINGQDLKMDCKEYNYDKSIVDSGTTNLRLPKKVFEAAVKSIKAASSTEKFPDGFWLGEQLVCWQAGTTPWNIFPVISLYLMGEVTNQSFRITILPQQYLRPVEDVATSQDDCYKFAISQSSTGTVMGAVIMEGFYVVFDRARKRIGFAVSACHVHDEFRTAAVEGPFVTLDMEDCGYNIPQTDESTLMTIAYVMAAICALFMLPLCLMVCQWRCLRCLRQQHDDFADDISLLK

CCCN1Cc2cc(Oc3cccc(NS(=O)(=O)c4ccc5c(c4)OCCO5)c3)ccc2N=C1N [Compound 275]
IC50 (β-secretase(BACE) [1]): > 10 µM

CCCN1Cc2cc(Oc3cccc(C(=O)NCc4c(C)cc(C)cc4C)c3)ccc2N=C1N [Compound 423]
IC50 (β-secretase(BACE) [1]): 5.8 µM

COc1cc(OC)cc(Oc2ccc3c(c2)CN(CCCCC(=O)N(C)C2CCCCC2)C(N)=N3)c1 [Compound 288]
IC50 (β-secretase(BACE) [1]): > 10 µM

CCCN1Cc2cc(Oc3cccc(NS(C)(=O)=O)c3)ccc2N=C1N [Compound 237]
IC50 (β-secretase(BACE) [1]): > 10 µM

CCCN1Cc2cc(Oc3cccc(NS(=O)(=O)c4ccc(NC(C)=O)cc4)c3)ccc2N=C1N [Compound 246]
IC50 (β-secretase(BACE) [1]): > 10 µM

CCCN1Cc2cc(-c3cccc(NS(=O)(=O)c4ccccc4)c3)ccc2N=C1N [Compound 397]
IC50 (β-secretase(BACE) [1]): 3.98 µM

CCOC(=O)N1CCC(N2Cc3cc(Oc4cccc(NS(=O)(=O)c5ccc(C)cc5OC)c4)ccc3N=C2N)CC1 [Compound 353]
IC50 (β-secretase(BACE) [1]): 0.35 µM

CCCN1Cc2cc(Oc3cccc(NS(=O)(=O)c4ccccc4S(C)(=O)=O)c3)ccc2N=C1N [Compound 250]
IC50 (β-secretase(BACE) [1]): > 10 µM

CN(C(=O)CCN1Cc2ccccc2N=C1N)c1ccccc1 [Compound 800]
IC50 (β-secretase(BACE) [1]): 17 µM

CCCN1Cc2cc(Oc3cccc(NS(=O)(=O)c4ccc(C)cc4OC)c3)ccc2N=C1N [Compound 273]
IC50 (β-secretase(BACE) [1]): 0.17 µM

CN(C(=O)CCN1Cc2cc(C(=O)c3ccc(F)cc3)ccc2N=C1N)C1CCCC1 [Compound 25]
IC50 (β-secretase(BACE) [1]): 5.5 µM

CN(C(=O)CCN1Cc2cc(C(=O)c3ccccc3)ccc2N=C1N)C1CCCCCC1 [Compound 4]
IC50 (β-secretase(BACE) [1]): 2.5 µM

CCCN1Cc2cc(Oc3cccc(NS(=O)(=O)c4ccc(-c5csc(C)n5)s4)c3)ccc2N=C1N [Compound 254]
IC50 (β-secretase(BACE) [1]): > 10 µM

CCCN1Cc2cc(Oc3cccc(NS(=O)(=O)c4ccsc4C(=O)OC)c3)ccc2N=C1N [Compound 276]
IC50 (β-secretase(BACE) [1]): > 10 µM

CN(Cc1ccccc1)C(=O)CCN1Cc2cc(C(=O)c3ccccc3)ccc2N=C1N [Compound 43]
IC50 (β-secretase(BACE) [1]): 7.2 µM

CCN(C(=O)CCN1Cc2cc(C(=O)c3ccc(F)cc3)ccc2N=C1N)C1CCCCC1 [Compound 6]
IC50 (β-secretase(BACE) [1]): 9.1 µM

CCCN1Cc2cc(Oc3cccc(NCc4ccccc4)c3)ccc2N=C1N [Compound 507]
IC50 (β-secretase(BACE) [1]): 0.081 µM

CCCN1Cc2cc(Oc3cccc(NS(=O)(=O)c4cccc(OC(F)(F)F)c4)c3)ccc2N=C1N [Compound 252]
IC50 (β-secretase(BACE) [1]): 1 µM

CCCN1Cc2cc(Oc3cccc(NC(=O)c4ccccc4)c3)ccc2N=C1N [Compound 60]
IC50 (β-secretase(BACE) [1]): 5.6 µM

NC1=Nc2ccc(Oc3cccc(NS(=O)(=O)c4ccccc4)c3)cc2CN1CCCCO [Compound 126]
IC50 (β-secretase(BACE) [1]): 0.24 µM

CCCN1Cc2cc(Oc3cccc(NS(=O)(=O)c4cccc(OC)c4)c3)ccc2N=C1N [Compound 271]
IC50 (β-secretase(BACE) [1]): 0.39 µM

NC1=Nc2ccc(C(=O)c3ccccc3)cc2CN1CCC(=O)N(C1CCCCC1)C1CCCCC1 [Compound 39]
IC50 (β-secretase(BACE) [1]): 1.3 µM

CC(C)(C)OC(=O)N1CCC(CN2Cc3cc(Oc4cccc(NS(=O)(=O)c5ccccc5)c4)ccc3N=C2N)CC1 [Compound 384]
IC50 (β-secretase(BACE) [1]): 0.13 µM

CN(C(=O)CCN1Cc2cc(-c3noc4cc(F)ccc34)ccc2N=C1N)C1CCCCC1 [Compound 37]
IC50 (β-secretase(BACE) [1]): 12 µM

CCCN1Cc2cc(Oc3cccc(NS(=O)(=O)C(C)C)c3)ccc2N=C1N [Compound 238]
IC50 (β-secretase(BACE) [1]): 8.9 µM

CC1CCCCC1NC(=O)CCN1Cc2cc(Oc3ccccc3)ccc2N=C1N (stereo not drawn) [Compound 511]
Ki (β-secretase(BACE) [2]): 0.1 µM
inhibition at 0.3 µM (β-secretase(BACE) [3]; [4]): 34%
inhibition at 1 µM (β-secretase(BACE) [3]; [5]): 85%
inhibition at 3 µM (β-secretase(BACE) [3]; [6]): 113%

CCCCCC(CCC(=O)N(C)C1CCCCC1)N1Cc2cc(Oc3ccccc3)ccc2N=C1N (stereo not drawn) [Compound 148]
Ki (β-secretase(BACE) [2]): 0.25 µM
inhibition at 0.3 µM (β-secretase(BACE) [3]; [4]): 35%
inhibition at 1 µM (β-secretase(BACE) [3]; [5]): 62%
inhibition at 3 µM (β-secretase(BACE) [3]; [6]): 114%

NC1=Nc2ccc(Oc3ccccc3)cc2CN1[C@@H](CCC(=O)N[C@@H](COCc1ccccc1)C(=O)O)C1CCOCC1 [Compound 782]
Ki (β-secretase(BACE) [2]): 0.015 µM
inhibition at 0.3 µM (β-secretase(BACE) [3]; [7]): 104%
inhibition at 1 µM (β-secretase(BACE) [3]; [8]): 107%
inhibition at 3 µM (β-secretase(BACE) [3]; [9]): 113%

CC(C)CN(CC(C)C)C(=O)c1cccc(CN2Cc3cc(Oc4ccccc4)ccc3N=C2N)c1 [Compound 211]
Ki (β-secretase(BACE) [2]): 0.69 µM
inhibition at 0.3 µM (β-secretase(BACE) [3]; [4]): < 30%
inhibition at 1 µM (β-secretase(BACE) [3]; [5]): < 30%
inhibition at 3 µM (β-secretase(BACE) [3]; [6]): 68%

COc1cccc(Oc2ccc3c(c2)CN(Cc2cccc(C(=O)N(C)C4CCCCC4)c2)C(N)=N3)c1 [Compound 292]
Ki (β-secretase(BACE) [2]): 1 µM
inhibition at 0.3 µM (β-secretase(BACE) [3]; [4]): < 30%
inhibition at 1 µM (β-secretase(BACE) [3]; [5]): 49%
inhibition at 3 µM (β-secretase(BACE) [3]; [6]): 83%

CN(CCC#N)C(=O)CC[C@@H](C1CCCCC1)N1Cc2cc(-c3ccccc3F)ccc2N=C1N [Compound 725]
Ki (β-secretase(BACE) [2]): 0.45 µM
inhibition at 0.3 µM (β-secretase(BACE) [3]; [7]): 33%
inhibition at 1 µM (β-secretase(BACE) [3]; [8]): 74%
inhibition at 3 µM (β-secretase(BACE) [3]; [9]): 126%

CN(C(=O)CC[C@@H](C1CCCCC1)N1Cc2cc(Oc3ccccc3)ccc2N=C1N)[C@H]1CC[C@@H](C(N)=O)CC1 [Compound 764, 4-{[4-(2-Amino-6-phenoxy-4H-quinazolin-3-yl)-4S-cyclohexyl-butyryl]-methyl-amino}-S,R-cyclohexanecarboxylic acid amide]
Ki (β-secretase(BACE) [2]): 0.061 µM
inhibition at 0.3 µM (β-secretase(BACE) [3]; [7]): 87%
inhibition at 1 µM (β-secretase(BACE) [3]; [8]): 110%
inhibition at 3 µM (β-secretase(BACE) [3]; [9]): 116%

CN(C(=O)c1cccc(CN2Cc3cc(-c4ccccc4C(F)(F)F)ccc3N=C2N)c1)C1CCCCC1 [Compound 268]
Ki (β-secretase(BACE) [2]): 0.65 µM
inhibition at 0.3 µM (β-secretase(BACE) [3]; [4]): < 30%
inhibition at 1 µM (β-secretase(BACE) [3]; [5]): < 30%
inhibition at 3 µM (β-secretase(BACE) [3]; [6]): 71%

NC1=Nc2ccc(Oc3ccccc3)cc2CN1[C@@H](CCC(=O)N(CC(=O)O)C1CCCCC1)C1CCCCC1 [Compound 768, {[4-(2-Amino-6-phenoxy-4H-quinazolin-3-yl)-4S-cyclohexyl-butyryl]-cyclohexyl-amino}-acetic acid]
Ki (β-secretase(BACE) [2]): 0.013 µM
inhibition at 0.3 µM (β-secretase(BACE) [3]; [7]): 122%
inhibition at 1 µM (β-secretase(BACE) [3]; [8]): 120%
inhibition at 3 µM (β-secretase(BACE) [3]; [9]): 126%

CN(C(=O)c1cccc(CN2Cc3cc(Nc4ccccc4)ccc3N=C2N)c1)C1CCCCC1 [Compound 432]
Ki (β-secretase(BACE) [2]): 0.86 µM
inhibition at 0.3 µM (β-secretase(BACE) [3]; [4]): < 30%
inhibition at 1 µM (β-secretase(BACE) [3]; [5]): 41%
inhibition at 3 µM (β-secretase(BACE) [3]; [6]): 84%

CN(C(=O)c1cccc(CN2Cc3cc(-c4ccccc4[N+](=O)[O-])ccc3N=C2N)c1)C1CCCCC1 [Compound 333]
Ki (β-secretase(BACE) [2]): 0.49 µM
inhibition at 0.3 µM (β-secretase(BACE) [3]; [4]): < 30%
inhibition at 1 µM (β-secretase(BACE) [3]; [5]): < 30%
inhibition at 3 µM (β-secretase(BACE) [3]; [6]): 78%

NC1=Nc2ccc(Oc3ccccc3)cc2CN1[C@@H](CCC(=O)N(Cc1nnn[nH]1)C1CCCCC1)C1CCCCC1 [Compound 787, 4-(2-Amino-6-phenoxy-4H-quinazolin-3-yl)-4S,N-dicyclohexyl-N-(1H-tetrazol-5-ylmethyl)-butyramide]
Ki (β-secretase(BACE) [2]): 0.038 µM
inhibition at 0.3 µM (β-secretase(BACE) [3]; [7]): 108%
inhibition at 1 µM (β-secretase(BACE) [3]; [8]): 109%
inhibition at 3 µM (β-secretase(BACE) [3]; [9]): 121%

COC(=O)[C@H](COCc1ccccc1)NC(=O)CC[C@@H](C1CCOCC1)N1Cc2cc(Oc3ccccc3)ccc2N=C1N [Compound 785]
Ki (β-secretase(BACE) [2]): 0.198 µM
inhibition at 0.3 µM (β-secretase(BACE) [3]; [7]): 71%
inhibition at 1 µM (β-secretase(BACE) [3]; [8]): 91%
inhibition at 3 µM (β-secretase(BACE) [3]; [9]): 107%

CN(C(=O)c1cccc(CN2Cc3cc(-c4ccccc4S(=O)(=O)NC(C)(C)C)ccc3N=C2N)c1)C1CCCCC1 [Compound 158]
Ki (β-secretase(BACE) [2]): 0.81 µM
% Inhibition (FS) 0.3 μM (β-secretase(BACE) [3]; 0.3 μM test compound): <30%
inhibition at 0.3 µM (β-secretase(BACE) [3]; [4]): < 30%
% Inhibition (FS) 1 μM (β-secretase(BACE) [3]; 1 μM test compound, 1 µM): <30% and 53%
% Inhibition (FS) 3 μM (β-secretase(BACE) [3]; 3 μM test compound, 3 µM): 79%
inhibition at 3 µM (β-secretase(BACE) [3]; [6]): 60%

CN(CCN1Cc2cc(Oc3ccccc3)ccc2N=C1N)C(=O)C1CCCCC1 [Compound 426, Cyclohexanecarboxylic acid [2-(2-amino-6-phenoxy-4H-quinazolin-3-yl)-ethyl]-methyl-amide]
Ki (β-secretase(BACE) [2]): 0.53 µM
inhibition at 0.3 µM (β-secretase(BACE) [3]; [4]): < 30%
inhibition at 1 µM (β-secretase(BACE) [3]; [5]): 34%
inhibition at 3 µM (β-secretase(BACE) [3]; [6]): 86%
